From US10828262B2, “Biomembrane, closed structure with biomembrane characteristics or cellular compartment derived from natural sources and/or self-assembly techniques, preparation method and applications thereof” (priority 2017, dated 2020)

Key:
[1] = system: human hepatoma cell line BEL-7402; details: BALB/C nude mouse
Description: (§1) • (1) Inoculate human hepatoma cell line BEL-7402 below back skin of BALB/C nude mouse.

[2] = Body weight of tumor model mice; assay type: in vivo, BALB/C nude mouse; details: BEL-7402 model nude mice
Description: as §1

[3] = In vivo half-life period of calcitonin after vein injection; set-up: species or system new zealand white rabbit; details: rabbit, injection through vein
[4] = 0.2 ml intraperitoneal injection every day, after 10 d

| Compound | Tumor After treatment [1, 4] [mm^3] | Tumor Before treatment ([1]; liver-implanted tumor) [mm^3] | Weight Before treatment [2] [g] | Weight After treatment [2, 4] [g] | in vivo half-life period [3] [h] |
| --- | --- | --- | --- | --- | --- |
| COc1cccc2c1C(=O)c1c(O)c3c(c(O)c1C2=O)C[C@@](O)(C(=O)CO)C[C@@H]3O[C@H]1C[C@H](N)[C@H](O)[C@H](C)O1 [Adriamycin amycin, adriamycin] | 50.17 | 42.93 | 20.03 | 20.1 |  |
| calcitonin [ordinary calcitonin] |  |  |  |  | 2 |
